# Source: ChEMBL document CHEMBL4342522 (J Med Chem, 2020)
# Active and inactive are the calls of the source. The calls are words filed in the database; no cut-off is given here.
# What was measured:
# [1] = AUC in monkey at 0.3 mg/kg, po; type: ADME, organism-based, Macaca mulatta; details: rhesus monkey, in vivo
# [2] = Half life in rat at 1 mg/kg, po; type: ADME, organism-based; details: in vivo
# [3] = Clearance in mouse plasma at 1 mg/kg, iv; type: ADME, organism-based
# [4] = Fraction of drug absorbed in mouse portal vein in mouse at 1 mg/kg, po; type: ADME, organism-based; details: in vivo
# [5] = Fraction of drug absorbed in mouse portal vein in rat at 1 mg/kg, po; type: ADME, organism-based; details: in vivo
# [6] = target: T1, Bromodomain testis-specific protein (Homo sapiens, UniProt Q58F21); test: Inhibition of BRDT BD1 (unknown origin) after 1 hr by TR-FRET assay
# [7] = AUC in monkey at 0.3 mg/kg, iv; type: ADME, organism-based, Macaca mulatta; details: rhesus monkey, in vivo
# SKM-1 [8] = test: Antiproliferative activity against human SKM1 cells assessed as reduction in cell viability after 5 days by CellTiter-Glo assay; type: functional, cell-based; details: SKM-1, 120 h
# [9] = Tmax in rat at 1 mg/kg, po; type: ADME, organism-based; details: in vivo
# [10] = AUC in dog at 0.1 mg/kg, iv; type: ADME, organism-based, Canis lupus familiaris; details: in vivo
# [11] = Tmax in mouse at 1 mg/kg, po; type: ADME, organism-based; details: in vivo
# [12] = AUC in dog at 0.3 mg/kg, po; type: ADME, organism-based, Canis lupus familiaris; details: in vivo
# [13] = Volume of distribution at steady state in dog at 0.1 mg/kg, iv; type: ADME, organism-based, Canis lupus familiaris; details: in vivo, read-out: Vdss
# [14] = Unbound hepatic clearance in mouse liver microsomes; type: ADME, Microsome
# [15] = Cmax in rat at 1 mg/kg, po; type: ADME, organism-based; parameters: dose 1 mg/kg, route oral; details: in vivo
# [16] = Oral bioavailability in monkey at 0.3 mg/kg; type: ADME, organism-based, Macaca mulatta; details: rhesus monkey, in vivo
# [17] = Fraction of drug absorbed in mouse portal vein in monkey at 1 mg/kg, po; type: ADME, organism-based, Macaca mulatta; details: rhesus monkey, in vivo
# [18] = Half life in mouse at 1 mg/kg, iv; type: ADME, organism-based; details: in vivo
# [19] = Oral bioavailability in dog at 0.3 mg/kg; type: ADME, organism-based, Canis lupus familiaris; details: in vivo
# [20] = AUC in rat at 1 mg/kg, po; type: ADME, organism-based; details: in vivo
# [21] = AUC in rat at 1 mg/kg, iv; type: ADME, organism-based; details: in vivo
# [22] = Fraction of drug absorbed in mouse portal vein in dog at 1 mg/kg, po; type: ADME, organism-based, Canis lupus familiaris; details: in vivo
# [23] = Cmax in monkey at 1 mg/kg, po; type: ADME, organism-based, Macaca mulatta; parameters: dose 1 mg/kg, route oral; details: rhesus monkey, in vivo
# [24] = Volume of distribution at steady state in mouse at 1 mg/kg, iv; type: ADME, organism-based; details: in vivo, read-out: Vdss
# [25] = Tmax in monkey at 1 mg/kg, po; type: ADME, organism-based, Macaca mulatta; details: rhesus monkey, in vivo
# [26] = Cmax in mouse at 1 mg/kg, po; type: ADME, organism-based; parameters: dose 1 mg/kg, route oral; details: in vivo
# [27] = Oral bioavailability in mouse at 1 mg/kg; type: ADME, organism-based; details: in vivo
# [28] = Volume of distribution at steady state in rat at 1 mg/kg, iv; type: ADME, organism-based; details: in vivo, read-out: Vdss
# [29] = Half life in dog at 0.1 mg/kg, iv; type: ADME, organism-based, Canis lupus familiaris; details: in vivo
# [30] = Half life in monkey at 0.3 mg/kg, iv; type: ADME, organism-based, Macaca mulatta; details: rhesus monkey, in vivo
# [31] = Unbound hepatic clearance in rat liver microsomes; type: ADME, Microsome
# [32] = AUC in mouse at 1 mg/kg, po; type: ADME, organism-based; details: in vivo
# [33] = Half life in monkey at 0.3 mg/kg, po; type: ADME, organism-based, Macaca mulatta; details: rhesus monkey, in vivo
# [34] = Half life in rat at 1 mg/kg, iv; type: ADME, organism-based; details: in vivo
# [35] = Unbound hepatic clearance in human liver microsomes; type: ADME, Microsome
# [36] = Oral bioavailability in rat at 1 mg/kg; type: ADME, organism-based; details: in vivo
# NCI-H1299 = test: Antiproliferative activity against human H1299 cells assessed as reduction in cell viability after 5 days by CellTiter-Glo assay; type: functional, cell-based; details: NCI-H1299, 120 h
# [37] = Cmax in dog at 1 mg/kg, po; type: ADME, organism-based, Canis lupus familiaris; parameters: dose 1 mg/kg, route oral; details: in vivo
# [38] = Volume of drug distribution in monkey at 0.3 mg/kg, iv; type: ADME, organism-based, Macaca mulatta; details: rhesus monkey, in vivo, read-out: Vdss
# [39] = Clearance in rat plasma at 1 mg/kg, iv; type: ADME, organism-based
# [40] = target: T1, Bromodomain testis-specific protein; test: Inhibition of BRDT BD2 (unknown origin) after 1 hr by TR-FRET assay
# [41] = AUC in mouse at 1 mg/kg, iv; type: ADME, organism-based; details: in vivo
# [42] = Permeability in dog MDCK cells by PAMPA; type: ADME, cell-based, Canis lupus familiaris; details: read-out: permeability
# [43] = Half life in dog at 0.3 mg/kg, po; type: ADME, organism-based, Canis lupus familiaris; details: in vivo
# [44] = Clearance in monkey plasma at 0.3 mg/kg, iv; type: ADME, organism-based, Macaca mulatta; details: rhesus monkey
# [45] = Tmax in dog at 1 mg/kg, po; type: ADME, organism-based, Canis lupus familiaris; details: in vivo
# [46] = Half life in mouse at 1 mg/kg, po; type: ADME, organism-based; details: in vivo
# [47] = Clearance in dog plasma at 0.1 mg/kg, iv; type: ADME, organism-based, Canis lupus familiaris
# [48] = target: T2, Bromodomain-containing protein 4 (Homo sapiens, UniProt O60885); test: biochemical; type: cell-based
# Description: Inhibition of human N-terminal His6 tagged BRD4 BD1 (57 to 168) residues expressed in Escherichia coli BL21(DE3) cells after 1 hr by TR-FRET assay
# [49] = Unbound hepatic clearance in monkey liver microsomes; type: ADME, Macaca mulatta, Microsome; details: rhesus monkey
# [50] = Clearance in monkey plasma at 0.1 mg/kg, iv; type: ADME, organism-based, Macaca mulatta; details: rhesus monkey
# [51] = AUC in monkey at 0.1 mg/kg, iv; type: ADME, organism-based, Macaca mulatta; details: rhesus monkey, in vivo
# [52] = Half life in monkey at 0.1 mg/kg, iv; type: ADME, organism-based, Macaca mulatta; details: rhesus monkey, in vivo
# [53] = Volume of distribution at steady state in monkey at 0.1 mg/kg, iv; type: ADME, organism-based, Macaca mulatta; details: rhesus monkey, in vivo, read-out: Vdss
# SKM-1 [54] = test: Antitumor activity against human SKM1 cells xenografted in SCID mouse assessed as tumor growth inhibition at 1 mg/kg, po qd for 21 days by caliper method; type: functional, organism-based
# [55] = target: T2, Bromodomain-containing protein 4; test: Inhibition of human N-terminal His6 tagged BRD4 BD2 (352 to 457) residues expressed in Escherichia coli BL21(DE3) cells after 1 hr by TR-FRET assay
structure (smiles),measurement,setting,value
CCNC(=O)c1cc2c(-c3cc(C(C)(C)O)ccc3Oc3c(C)cc(F)cc3C)cn(C)c(=O)c2[nH]1 [ABBV-744],AUC,[1],0.014 µg·h/mL
same,half-life,[2],3.4 h
same,clearance,[3],0.29 L/h/kg
same,FaFg,[4],81
same,FaFg,[5],52
same,Ki,[6],0.917 µM
same,AUC,[7],0.2 µg·h/mL
same,IC50,SKM-1 [8],0.0067 µM
same,Tmax,[9],7.5 min
same,AUC,[10],0.46 µg·h/mL
same,Tmax,[11],6 min
same,AUC,[12],1.05 µg·h/mL
same,Vd,[13],1.5 L/kg
same,CL free,[14],45 L/h/kg
same,Cmax,[15],0.012 µg/mL
same,bioavailability,[16],7%
same,FaFg,[17],19
same,half-life,[18],3 h
same,bioavailability,[19],77%
same,AUC,[20],0.12 µg·h/mL
same,AUC,[21],0.5 µg·h/mL
same,FaFg,[22],87
same,Cmax,[23],0.005 µg/mL
same,Vd,[24],1.3 L/kg
same,Tmax,[25],1.5 h
same,Cmax,[26],0.21 µg/mL
same,bioavailability,[27],58%
same,Vd,[28],5.3 L/kg
same,half-life,[29],4.4 h
same,half-life,[30],2 h
same,CL free,[31],12 L/h/kg
same,AUC,[32],2.35 µg·h/mL
same,half-life,[33],2.5 h
same,half-life,[34],2.9 h
same,CL free,[35],8.6 L/h/kg
same,bioavailability,[36],24%
same,IC50,NCI-H1299,1.6 µM
same,Cmax,[37],0.116 µg/mL
same,Vd,[38],3.4 L/kg
same,clearance,[39],0.67 L/h/kg
same,Ki,[40],0.001 µM
same,AUC,[41],3.8 µg·h/mL
same,Papp,[42],20 nm/s
same,half-life,[43],4.2 h
same,clearance,[44],1.54 L/h/kg
same,Tmax,[45],2.8 h
same,half-life,[46],2.8 h
same,clearance,[47],0.24 L/h/kg
CCNC(=O)c1cc2c(-c3cc(S(=O)(=O)CC)ccc3Oc3c(C)cccc3C)cn(C)c(=O)c2[nH]1,half-life,[2],1 h
same,clearance,[3],0.69 L/h/kg
same,Ki,[48],0.12 µM
same,IC50,SKM-1 [8],0.0052 µM
same,AUC,[10],0.291 µg·h/mL
same,AUC,[12],0.644 µg·h/mL
same,Vd,[13],1.7 L/kg
same,CL free,[49],32 L/h/kg
same,CL free,[14],42 L/h/kg
same,bioavailability,[16],0%
same,half-life,[18],1 h
same,bioavailability,[19],74%
same,AUC,[20],0.027 µg·h/mL
same,AUC,[21],0.384 µg·h/mL
same,Vd,[24],0.8 L/kg
same,clearance,[50],1.2 L/h/kg
same,AUC,[51],0.089 µg·h/mL
same,bioavailability,[27],53%
same,half-life,[52],1.5 h
same,Vd,[28],3.5 L/kg
same,half-life,[29],3.7 h
same,CL free,[31],64 L/h/kg
same,AUC,[32],0.76 µg·h/mL
same,half-life,[34],1.4 h
same,Vd,[53],2.3 L/kg
same,inhibition,SKM-1 [54],Active
same,Ki,[55],0.0011 µM
same,CL free,[35],5.4 L/h/kg
same,bioavailability,[36],7%
same,IC50,NCI-H1299,0.45 µM
same,clearance,[39],2.71 L/h/kg
same,AUC,[41],1.44 µg·h/mL
same,Papp,[42],76.8 nm/s
same,half-life,[43],0.3 h
same,half-life,[46],1 h
same,clearance,[47],0.34 L/h/kg
